From patent US5286895A, “Cholesterol lowering compounds” (Merck & Co., Inc., priority 1992, dated 1994) come the findings set out here.

One test addresses T1, squalene synthetase (Rattus norvegicus, UniProt Q02769).
T1 construct: The resulting microsomal pellet was resuspended in a volume of the above homogenizing buffer; from tissue; host or cells: rat liver microsomes (male Charles River CD rats fed 0.1% lovastatin)
T1 sequence (Q02769 1-416): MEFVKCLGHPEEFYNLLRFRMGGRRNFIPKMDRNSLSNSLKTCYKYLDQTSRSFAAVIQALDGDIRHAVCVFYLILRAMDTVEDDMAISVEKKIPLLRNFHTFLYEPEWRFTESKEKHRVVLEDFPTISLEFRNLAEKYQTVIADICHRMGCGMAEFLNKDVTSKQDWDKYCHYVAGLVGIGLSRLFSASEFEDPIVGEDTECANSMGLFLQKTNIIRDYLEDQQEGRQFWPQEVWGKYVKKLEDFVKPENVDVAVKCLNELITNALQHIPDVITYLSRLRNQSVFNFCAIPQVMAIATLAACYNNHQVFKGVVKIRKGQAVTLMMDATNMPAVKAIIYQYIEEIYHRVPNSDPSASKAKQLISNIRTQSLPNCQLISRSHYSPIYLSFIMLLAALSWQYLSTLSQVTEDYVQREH
In words: Squalene synthetase assay (rat liver microsomes, [4-14C]farnesyl-pyrophosphate). In kind it is biochemical. Particulars: 30° C., 20 minutes, read-out: IC50, squalene synthetase inhibition.

For the next test, the system named is cholesterol synthesis. In words: Measurement of inhibition of cholesterol synthesis in mice ([3H]mevalonolactone incorporation in liver). Particulars: female Swiss-Webster mice, subcutaneous. The test is classed as in vivo. The method, then: Female Swiss-Webster mice, approximately 25 grams, were dosed subcutaneously with the test compound or just with saline for controls. The tri-sodium salt of Compound A was dissolved in 0.9% NaCl and administered in a volume of less than 0.1 ml. Thirty minutes after receiving a dose of the test compound or saline for the controls, the mice were subcutaneously administered a dose of 0.5 uCi of R,S-[5-^3 H]mevalonolactone (35 Ci/mmol). The tracer mevalonolactone was dissolved in 0.9% NaCl and administered in a volume of 0.05 ml. Thirty minutes after receiving the dose of mevalonolactone, the animals were euthanized, and the livers were removed and saponified in a solution of 4 ml of 40% KOH and 2 ml of 95% ethanol overnight at 65° C. The saponified livers were extracted with two 5 ml volumes of petroleum ether. Incorporation of ^3 H into this petroleum ether fraction was used to measure cholesterol synthesis. Inhibition of cholesterol synthesis was determined by comparing the incorporation of ^3 H in the petroleum ether fraction in control animals to the incorporation in the petroleum ether fraction in the compound test animals.

Experimental for squalene synthetase: Male, Charles River CD rats (120 to 150 g) were fed a diet containing 0.1% lovastatin for 4 days. The livers from these rats were homogenized in 5 volumes (ml/g) of ice cold 50 mM HEPES (4-(2-hydroxyethyl)-1-piperazine-ethanesulfonic acid), 5 mM EDTA(ethylenediaminetetraacetic acid) pH 7.5 with a Potter-Elvehjem type tissue grinder. The homogenate was centrifuged twice at 20,000× g for 15 minutes at 4° C., discarding the pellet each time. The supernatant was then centrifuged at 100,000× g for 1 hour at 4° C. The resulting microsomal pellet was resuspended in a volume of the above homogenizing buffer equal to one-fifth the volume of the original homogenate. This microsomal preparation has a protein concentration of about 7 mg/ml. The microsomal suspensions were stored in aliquots at -70° C. Squalene synthetase activity in these aliquots is stable for at least several months.
Reaction were performed in 16×125 mm screw cap test tubes. A batch assay mix was prepared from the following solution:
This assay mix was degassed under a vacuum and flushed with N2. […] Ten ml of scintillation fluid was added to the heptane solution and radioactivity was determined by liquid scintillation counting.
Percent inhibition is calculated by the formula: [formula]
IC50 values were determined by plotting the log of the concentration of the test compound versus the percentage inhibition.

For `C/C(=C\C(C)Cc1ccccc1)CCCCCC(C(=O)O)C(O)(CC(=O)O)C(=O)O` (stereo not drawn) [Compound A], on squalene synthetase, the IC50 was around 300 nM. In the test with cholesterol synthesis (Mus musculus, sc, tri-sodium salt in 0.9% NaCl, dosed 30 min before [3H]mevalonolactone), the ED50 was around 15 mg/kg. Further, the “inhibition of cholesterol synthesis in mice (in words)” value in the test on cholesterol synthesis is “potent inhibitor of cholesterol synthesis in mice”.
